Consider 19 molecules from patent publication US9567345B2, “Pharmaceutically active pyrazolo-triazine derivatives” (LEAD DISCOVERY CENTER GMBH, priority 2012, dated 2017).

Holding throughout (type): biochemical
Assay [1] addresses CDK7/CycH/Mat1 (Homo sapiens, UniProt P50613). The assay is described as follows: CDK7 Enzymatic Activity Assay (Lance Kinase Activity Assay, FRET). The method, boiled down:
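Ulight-MBP peptide phosphorylation by CDK7/CycH/Mat1 in HEPES 50 mM pH 7.5, MgCl2, EGTA, DTT, Tween-20; 1 h at room temperature, then EDTA stop with Eu-anti-phospho-MBP antibody for 1 h and TR-FRET read. Compounds in 8-point 1:3 DMSO series; IC50 from sigmoidal dose-response fit.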

The target of assay [2] is T1, CDK2/CycA (Homo sapiens, UniProt P24941).
T1 construct: purchased Proqinase
As to the kind of experiment: CDK2 Enzymatic Activity Assay (Lance Kinase Activity Assay, FRET). As to the method:
This protocol describes how the Lance Kinase Activity Assay was performed to determine IC50 values of compounds of general formula (I) against CDK/Cyclin complexes. The principle behind this enzymatic assay is based upon the phosphorylation of the Ulight-Peptide Substrat. It is detected by using a specific EU-labeled anti-phospho peptide antibody.
Binding of an inhibitor to the kinase prevents phosphorylation of the Ulight-MBP Substrat, resulting in a loss of FRET.
CDK2 Enzymatic Activity Assay
The compounds of general formula (I) exemplary summarized in Table 1 were diluted from a 10 mM DMSO stock solution 1:10 in a total volume of 15 μl DMSO. This compound predilution was then serial diluted 1:3 over 8 steps in DMSO and briefly spun down. Each compound solution was now diluted 1:20 in Enzymatic Buffer (HEPES: 50 mM, pH: 7.5; MgCl2: 10 mM; EGTA: 1 mM; DTT: 2 mM; Tween-20: 0.01%), mixed thoroughly and spun down.
For positive controls, 2 μl of DMSO working solution were mixed with 6 μl CDK2/CycA/substrate working solution and 2 μl ATP working solution. Positive and negative controls were calculated from at least 8 different wells. The 384 well plates were mixed in a Teleshaker plate mixer (Beckman Coulter, Brea, Calif., USA) at 2000 rpm for 40 sec, and incubated for 1 h at room temperature before addition of 10 μl LANCE Detection Buffer (EDTA: […]; Eu-Anti-P-MBP: 4 nM) per well. Plates were mixed in a Teleshaker plate mixer (Beckman Coulter, Brea, Calif., USA) at 2000 rpm for 40 sec, followed by incubation with Detection Buffer for 1 h, and reading. […] IC50 values were determined from the sigmoidal dose response curves with the software Quattro Workflow (Quattro GmbH, Munich, Germany).

Assay [3] concerns the target CDK9/Cyclin T1 (Homo sapiens, UniProt P50750). As to the kind of experiment: CDK9 Enzymatic Activity Assay (Lance Kinase Activity Assay, FRET). In a few lines:
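CDK9/cyclin T1 phosphorylation of a ULight-MBP peptide was run for 1 h at room temperature in pH 7.5 HEPES buffer with MgCl2, EGTA, DTT and Tween-20. It was followed by 1 h with Eu-anti-phospho-MBP antibody (4 nM) in EDTA detection buffer. TR-FRET loss gave IC50 from 8-point, 1:3 sigmoidal dose-response curves.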

The mark [4] stands for this setting: CDK7/CycH/Mat1, 25 μM ATP final, class ranges, read-out: CDK7: IC50 [nM] for CDK7 inhibition.
The mark [5] stands for this setting: Table 5B, class symbols per IC50 [nM] ranges of b581, read-out: CDK2: Selectivity of CDK7 inhibition over CDK2 inhibition.
The mark [6] stands for this setting: Table 5B, class symbols per IC50 [nM] ranges of b581, read-out: CDK9: Selectivity of CDK7 inhibition over CDK9 inhibition.

Where two headings read alike, the source gives them in different places. Where only a bound is given, the exact number is not on record here.

CDK7/CycH/Mat1, sequence (P50613 whole entry): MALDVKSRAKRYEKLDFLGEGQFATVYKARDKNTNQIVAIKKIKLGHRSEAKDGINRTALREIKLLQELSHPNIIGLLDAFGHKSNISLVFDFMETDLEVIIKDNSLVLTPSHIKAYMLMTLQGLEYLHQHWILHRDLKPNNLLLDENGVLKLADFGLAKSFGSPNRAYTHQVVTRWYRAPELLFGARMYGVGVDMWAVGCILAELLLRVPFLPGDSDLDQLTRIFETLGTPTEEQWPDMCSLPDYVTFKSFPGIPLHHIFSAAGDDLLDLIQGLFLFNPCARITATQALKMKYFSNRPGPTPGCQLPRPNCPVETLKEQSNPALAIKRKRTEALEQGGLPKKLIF
CDK9/Cyclin T1, sequence (P50750 whole entry): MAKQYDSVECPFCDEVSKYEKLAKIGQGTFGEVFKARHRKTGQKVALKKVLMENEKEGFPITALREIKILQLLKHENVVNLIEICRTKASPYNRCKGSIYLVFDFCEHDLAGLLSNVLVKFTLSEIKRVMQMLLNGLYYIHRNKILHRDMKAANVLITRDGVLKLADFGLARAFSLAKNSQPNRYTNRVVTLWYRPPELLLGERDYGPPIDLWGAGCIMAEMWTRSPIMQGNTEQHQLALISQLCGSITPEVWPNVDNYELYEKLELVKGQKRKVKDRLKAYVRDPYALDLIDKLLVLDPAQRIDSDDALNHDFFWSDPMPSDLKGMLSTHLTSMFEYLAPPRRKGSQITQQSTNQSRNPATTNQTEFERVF
CDK9/Cyclin T1, sequence (O60563 whole entry partner): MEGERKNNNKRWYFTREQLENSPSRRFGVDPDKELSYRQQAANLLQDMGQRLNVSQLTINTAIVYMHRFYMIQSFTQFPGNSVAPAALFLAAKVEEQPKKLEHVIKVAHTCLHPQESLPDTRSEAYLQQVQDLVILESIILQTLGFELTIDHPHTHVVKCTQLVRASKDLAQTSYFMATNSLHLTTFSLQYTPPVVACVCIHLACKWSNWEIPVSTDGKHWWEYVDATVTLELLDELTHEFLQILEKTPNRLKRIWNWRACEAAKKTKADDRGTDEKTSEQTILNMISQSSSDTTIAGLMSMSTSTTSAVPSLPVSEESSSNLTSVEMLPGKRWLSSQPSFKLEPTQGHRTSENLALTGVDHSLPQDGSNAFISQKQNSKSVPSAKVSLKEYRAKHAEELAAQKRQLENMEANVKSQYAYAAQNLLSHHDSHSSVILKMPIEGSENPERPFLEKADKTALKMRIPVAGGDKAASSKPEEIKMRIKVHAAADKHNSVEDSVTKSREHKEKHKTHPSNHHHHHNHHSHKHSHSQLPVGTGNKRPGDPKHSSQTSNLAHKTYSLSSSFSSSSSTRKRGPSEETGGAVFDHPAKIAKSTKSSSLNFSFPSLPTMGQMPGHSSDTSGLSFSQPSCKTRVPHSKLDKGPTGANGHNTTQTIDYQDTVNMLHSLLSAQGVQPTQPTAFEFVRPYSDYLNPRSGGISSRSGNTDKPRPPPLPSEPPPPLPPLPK

Regarding `CC(C)c1cnn2c(NCc3ccccc3-n3ccnc3)nc(O[C@@H]3CCNC3)nc12` [(VII-27), (R)-N-(2-(1H-imidazol-1-yl)benzyl)-8-isopropyl-2-(pyrrolidin-3-yloxy)pyrazolo[1,5-a][1,3,5]triazin-4-amine], the IC50 in assay [1] (setting [4]) was below 5 nM; in assay [2] (setting [5]), 50 to 500 nM; in assay [3] (setting [6]) it was 50 to 500 nM.
Take `CC(C)c1cnn2c(NCc3ccccc3-c3nnnn3C)nc(O[C@@H]3CCCNC3)nc12` [(VII-29), (R)-8-isopropyl-N-(2-(1-methyl-1H-tetrazol-5-yl)benzyl)-2-(piperidin-3-yloxy)pyrazolo[1,5-a][1,3,5]triazin-4-amine]: the IC50 was below 5 nM in assay [1] (setting [4]); below 5 nM in assay [1] (Table 6, read-out: IC50 CDK7); 50 to 500 nM in assay [2] (setting [5]); above 2500 nM in assay [3] (setting [6]). Further, the “Selectivity CDK7 over CDK2” value in assay [2] (Table 6) was 394 fold. Further, the “Selectivity CDK7 over CDK9” value in assay [3] (Table 6) is 3255 fold.
Regarding `CC(C)c1cnn2c(NCc3cccc4c3ccc[n+]4[O-])nc(O[C@@H]3CCCNC3)nc12` [(VII-30), (R)-5-(((8-isopropyl-2-(piperidin-3-yloxy)pyrazolo[1,5-a][1,3,5]triazin-4-yl)amino)methyl)quinoline 1-oxide], the values for the IC50 in assay [1] (setting [4]), in assay [2] (setting [5]) and in assay [3] (setting [6]) were below 5 nM, 500 to 2500 nM and below 50 nM, respectively.
For `CC(C)c1cnn2c(NCc3cccc4ccncc34)nc(O[C@@H]3CCCNC3)nc12` [(VII-31), (R)-8-isopropyl-N-(isoquinolin-8-ylmethyl)-2-(piperidin-3-yloxy)pyrazolo[1,5-a][1,3,5]triazin-4-amine] the same measures were below 5 nM, 50 to 500 nM and below 50 nM.
The matching figures for `CC(C)c1cnn2c(NCc3cccc4cc[n+]([O-])cc34)nc(O[C@@H]3CCCNC3)nc12` [(VII-32), (R)-8-(((8-isopropyl-2-(piperidin-3-yloxy)pyrazolo[1,5-a][1,3,5]triazin-4-yl)amino)methyl)isoquinoline 2-oxide]: below 5 nM, 50 to 500 nM and 50 to 500 nM.
The matching figures for `CC(C)c1cnn2c(NCc3cccc4c3cnn4C)nc(O[C@@H]3CCCNC3)nc12` [(VII-33), (R)-8-isopropyl-N-((1-methyl-1H-indazol-4-yl)methyl)-2-(piperidin-3-yloxy)pyrazolo[1,5-a][1,3,5]triazin-4-amine]: below 5 nM, below 50 nM and below 50 nM.
With `CC(C)c1cnn2c(NCc3ccccc3-c3ccccn3)nc(O[C@@H]3CCCNC3)nc12` [(VII-34), (R)-8-isopropyl-2-(piperidin-3-yloxy)-N-(2-(pyridin-2-yl)benzyl)pyrazolo[1,5-a][1,3,5]triazin-4-amine], the IC50 in assay [1] (setting [4]) is below 5 nM; in assay [2] (setting [5]), 50 to 500 nM; in assay [3] (setting [6]), 500 to 2500 nM.
For `CC(C)c1cnn2c(NCc3cccc4cccnc34)nc(O[C@@H]3CCCNC3)nc12` [(VII-35), (R)-8-isopropyl-2-(piperidin-3-yloxy)-N-(quinolin-8-ylmethyl)pyrazolo[1,5-a][1,3,5]triazin-4-amine], the figures for the IC50 in assay [1] (setting [4]), in assay [2] (setting [5]) and in assay [3] (setting [6]) were below 5 nM, 50 to 500 nM and 50 to 500 nM, respectively.
In the case of `CC(C)c1cnn2c(NCc3cccc4[nH]ncc34)nc(O[C@@H]3CCCNC3)nc12` [(VII-36), (R)-N-((1H-indazol-4-yl)methyl)-8-isopropyl-2-(piperidin-3-yloxy)pyrazolo[1,5-a][1,3,5]triazin-4-amine], the IC50 in assay [1] (setting [4]) is below 5 nM; in assay [2] (setting [5]) it was below 50 nM; in assay [3] (setting [6]) it was below 50 nM.
Take `CC(C)c1cnn2c(NCc3ccccc3-c3nnn(C)n3)nc(O[C@@H]3CCCNC3)nc12` [(VII-37), (R)-8-isopropyl-N-(2-(2-methyl-2H-tetrazol-5-yl)benzyl)-2-(piperidin-3-yloxy)pyrazolo[1,5-a][1,3,5]triazin-4-amine]: the results for the IC50 in assay [1] (setting [4]), in assay [2] (setting [5]) and in assay [3] (setting [6]) were below 5 nM, below 50 nM and above 2500 nM, respectively.
`CC(C)c1cnn2c(NCc3ccccc3S(=O)(=O)N(C)C)nc(O[C@@H]3CCCNC3)nc12` [(VII-38), (R)-2-(((8-isopropyl-2-(piperidin-3-yloxy)pyrazolo[1,5-a][1,3,5]triazin-4-yl)amino)methyl)-N,N-dimethylbenzenesulfonamide]: the IC50 in assay [1] (setting [4]) is below 5 nM; in assay [1] (Table 7, read-out: IC50 CDK7), below 5 nM; in assay [2] (setting [5]), 50 to 500 nM; in assay [2] (Table 7, read-out: IC50 CDK2), 50 to 500 nM; in assay [3] (setting [6]), 500 to 2500 nM; in assay [3] (Table 7, read-out: IC50 CDK9), 500 to 2500 nM. Moreover, in assay [2] (Table 7), the “Selectivity CDK7 over CDK2” value is on record as 342 fold. For the same molecule, in assay [3] (Table 7), the “Selectivity CDK7 over CDK9” value is reported as 2733 fold.
`CC(C)c1cnn2c(NCc3ccccc3N3CCCC3=O)nc(O[C@@H]3CCCNC3)nc12` [(VII-39), (R)-1-(2-(((8-isopropyl-2-(piperidin-3-yloxy)pyrazolo[1,5-a][1,3,5]triazin-4-yl)amino)methyl)phenyl)pyrrolidin-2-one]: the IC50 was below 5 nM in assay [1] (setting [4]), 50 to 500 nM in assay [2] (setting [5]) and above 2500 nM in assay [3] (setting [6]).
In the case of `CC(C)c1cnn2c(NCc3cc(F)ccc3-n3cccn3)nc(O[C@@H]3CCCNC3)nc12` [(VII-41), (R)-N-(5-fluoro-2-(1H-pyrazol-1-yl)benzyl)-8-isopropyl-2-(piperidin-3-yloxy)pyrazolo[1,5-a][1,3,5]triazin-4-amine], the IC50 was below 5 nM in assay [1] (setting [4]), below 50 nM in assay [2] (setting [5]) and 50 to 500 nM in assay [3] (setting [6]).
For the molecule `CC(C)c1cnn2c(NCc3cccc(F)c3-n3cccn3)nc(O[C@@H]3CCCNC3)nc12` [(VII-42), (R)-N-(3-fluoro-2-(1H-pyrazol-1-yl)benzyl)-8-isopropyl-2-(piperidin-3-yloxy)pyrazolo[1,5-a][1,3,5]triazin-4-amine], the IC50 in assay [1] (setting [4]) is below 5 nM; in assay [2] (setting [5]) it was below 50 nM; in assay [3] (setting [6]), 50 to 500 nM.
For `CC(C)c1cnn2c(NCc3ccc(F)cc3-n3cccn3)nc(O[C@@H]3CCCNC3)nc12` [(VII-43), (R)-N-(4-fluoro-2-(1H-pyrazol-1-yl)benzyl)-8-isopropyl-2-(piperidin-3-yloxy)pyrazolo[1,5-a][1,3,5]triazin-4-amine], the IC50 is below 5 nM in assay [1] (setting [4]), below 50 nM in assay [2] (setting [5]) and 50 to 500 nM in assay [3] (setting [6]).
For `CC(C)c1cnn2c(NCc3c(F)cccc3-n3cccn3)nc(O[C@@H]3CCCNC3)nc12` [(VII-44), (R)-N-(2-fluoro-6-(1H-pyrazol-1-yl)benzyl)-8-isopropyl-2-(piperidin-3-yloxy)pyrazolo[1,5-a][1,3,5]triazin-4-amine] the same measures were below 5 nM, 50 to 500 nM and above 2500 nM.
Consider `CC(C)c1cnn2c(NCc3ccccc3-n3cc(Cl)cn3)nc(O[C@@H]3CCCNC3)nc12` [(VII-52), (R)-N-(2-(4-chloro-1H-pyrazol-1-yl)benzyl)-8-isopropyl-2-(piperidin-3-yloxy)pyrazolo[1,5-a][1,3,5]triazin-4-amine], for which the values for the IC50 in assay [1] (setting [4]), in assay [2] (setting [5]) and in assay [3] (setting [6]) were below 5 nM, 50 to 500 nM and 50 to 500 nM, respectively.
For the molecule `CC(C)c1cnn2c(NCc3ccccc3F)nc(OC3CCN(C)CC3)nc12` [(VII-56), N-(2-fluorobenzyl)-8-isopropyl-2-((1-methylpiperidin-4-yl)oxy)pyrazolo[1,5-a][1,3,5]triazin-4-amine], the values for the IC50 in assay [1] (setting [4]), in assay [2] (setting [5]) and in assay [3] (setting [6]) were 5 to 10 nM, 500 to 2500 nM and 50 to 500 nM, respectively.
For `CC(C)c1cnn2c(NCc3ccccc3C(F)(F)F)nc(OC3CCN(C)CC3)nc12` [(VII-58), 8-isopropyl-2-((1-methylpiperidin-4-yl)oxy)-N-(2-(trifluoromethyl)benzyl)pyrazolo[1,5-a][1,3,5]triazin-4-amine] the same measures were 10 to 25 nM, below 50 nM and above 2500 nM.
